Experimental data published in doi:10.1101/2023.10.14.562361v1 (biorxiv, 2023).

Columns and labels:
[1] = target: T1, Smurf1 HECT (Homo sapiens, UniProt Q9HCE7); test: UbFluor fluorescence polarization assay; format: biochemical
[2] = target: T1, Smurf1 HECT; test: biolayer interferometry; format: binding
[3] = system: Smurf1C2; test: UbFluor fluorescence polarization assay; format: biochemical, Homo sapiens; conditions: 0.5 µM enzyme, 2 µM UbFluor, pH 7.4, 0.01% Tween20
[4] = target: Smurf1 FL (Homo sapiens, UniProt Q9HCE7); test: UbFluor fluorescence polarization assay; format: biochemical
Smurf1 FL, sequence (Q9HCE7 whole entry): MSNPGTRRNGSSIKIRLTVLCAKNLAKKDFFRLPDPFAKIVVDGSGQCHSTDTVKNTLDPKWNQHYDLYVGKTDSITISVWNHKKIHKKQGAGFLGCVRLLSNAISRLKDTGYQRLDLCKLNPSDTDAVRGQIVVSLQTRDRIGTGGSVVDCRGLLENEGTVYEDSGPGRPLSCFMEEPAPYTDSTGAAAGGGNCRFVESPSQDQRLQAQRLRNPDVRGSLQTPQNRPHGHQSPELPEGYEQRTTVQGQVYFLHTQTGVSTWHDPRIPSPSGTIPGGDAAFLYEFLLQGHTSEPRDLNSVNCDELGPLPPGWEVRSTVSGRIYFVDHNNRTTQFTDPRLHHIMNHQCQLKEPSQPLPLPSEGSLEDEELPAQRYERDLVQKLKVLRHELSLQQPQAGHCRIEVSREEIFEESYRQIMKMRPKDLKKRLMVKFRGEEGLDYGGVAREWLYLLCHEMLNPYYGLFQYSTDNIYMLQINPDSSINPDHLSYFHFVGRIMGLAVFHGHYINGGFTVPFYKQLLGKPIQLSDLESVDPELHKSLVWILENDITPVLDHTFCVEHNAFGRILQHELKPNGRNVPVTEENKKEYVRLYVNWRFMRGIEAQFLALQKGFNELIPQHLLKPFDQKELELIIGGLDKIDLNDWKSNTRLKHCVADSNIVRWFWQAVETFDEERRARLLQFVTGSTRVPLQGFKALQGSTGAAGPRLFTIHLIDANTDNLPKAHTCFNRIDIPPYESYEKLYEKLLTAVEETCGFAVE

T1 sequence (Q9HCE7 341-757): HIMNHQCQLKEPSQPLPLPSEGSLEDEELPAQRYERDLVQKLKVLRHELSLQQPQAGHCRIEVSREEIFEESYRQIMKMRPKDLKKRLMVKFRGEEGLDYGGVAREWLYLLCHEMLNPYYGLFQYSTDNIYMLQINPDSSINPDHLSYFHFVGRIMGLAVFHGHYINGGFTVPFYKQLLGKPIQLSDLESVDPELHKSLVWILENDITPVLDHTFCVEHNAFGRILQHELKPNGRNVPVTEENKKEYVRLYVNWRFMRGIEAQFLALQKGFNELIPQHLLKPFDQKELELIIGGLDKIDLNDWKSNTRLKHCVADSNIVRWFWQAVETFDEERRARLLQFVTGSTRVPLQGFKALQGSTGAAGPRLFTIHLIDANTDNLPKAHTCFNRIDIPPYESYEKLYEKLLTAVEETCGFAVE

| IC50 [1] [µM] | Kd [2] [µM] | IC50 [3] [µM] | IC50 [4] [µM] | Structure (SMILES) |
| --- | --- | --- | --- | --- |
| 0.45 | 25.8 ± 2.2 | 0.14 | 0.23 | Cc1c(NC(=O)c2noc3c2CCSc2cc(OC(F)(F)F)ccc2-3)c(=O)n(C2CCCCC2)n1C [compound 1] |
| – | 54.5 ± 2 | 3.1 | – | Cc1c(C(=O)Nc2c(C)n(C)n(C3CCCCC3)c2=O)nnn1-c1ccc(OC(F)(F)F)cc1Cl [compound 2] |
